Tests used:
Format in all cases: in vivo
[1] = system: Sinapis arvensis; assay: Field trial with maize, herbicidal action; settings: 15 g of a.s./ha; application 4- to 5-leaf stage; scoring 28 days after application
Experimental: (§1) Transgenic maize plants with a resistance to one or more herbicides (A) together with typical weed plants were grown in the open on 2×5 m plots under natural field conditions; alternatively, weed infestation occurred naturally when the maize plants were grown.
(§2) 2, 4, 6 and 8 weeks after the application, the herbicidal activity of the active substances or active substance mixtures was scored visually with reference to the treated plots in comparison to untreated control plots. The damage to, and the development of, all aerial parts of the plants was recorded. Scoring was done on the basis of a percentage sale (100% action=all plants destroyed; 50% action=50% of the plants and green parts of the plants destroyed; 0% action=no recognizable effect=like control plot. The mean of the score values of in each case 4 plots was calculated.

[2] = system: Commelina benghalensis; assay: Field trial with maize, herbicidal action; settings: application 3-leaf stage, scoring 42 days after application
Experimental: as §1, §2

[3] = system: Mais LL (Liberty-Link-Mais, maize tolerant or resistant to glufosinate-ammonium); assay: Field trial, damage to transgenic maize (tolerance by crop plants)
Experimental: as §1
The damage to, and the development of, all aerial parts of the plants was recorded.
Abbreviations generally used in the tables: • g of a.s./ha=gram of active substance (100% active substance) per hectare • E^A=Total of the herbicidal effects of the individual applications • E^C Colby's expected value (cf. scoring in Table 1) • “Mais LL”=®Liberty-Link-Mais, maize which is tolerant or resistant to glufosinate-ammonium, […]

[4] = system: Convolvulus arvensis; assay: Field trial with maize, herbicidal action; settings: application 3- to 4-leaf stage, scoring 28 days after application
Experimental: as §1, §2

[5] = system: Euphorbia heterophylla; assay: Field trial with maize, herbicidal action; settings: for Herbicidal action (%) against EPHHL: application 4-leaf stage, scoring 6 weeks after application; for Herbicidal action (%) against Euphorbia heterophylla: application 6-leaf stage, scoring 44 days after application
Experimental: as §1
(§3) […] The damage to, and the development of, all aerial parts of the plants was recorded. Scoring was done on the basis of a percentage sale (100% action=all plants destroyed; 50% action=50% of the plants and green parts of the plants destroyed; 0% action=no recognizable effect=like control plot. The mean of the score values of in each case 4 plots was calculated.

[6] = system: Echinochloa crus-galli; assay: Field trial with maize, herbicidal action
Experimental: as §1, §3

[7] = system: Portulaca oleracea; assay: Field trial with maize, herbicidal action
Experimental: as §1, §3

[8] = system: Brachiaria plantaginea; assay: Field trial with maize, herbicidal action; settings: 1500 g of a.s./ha; application 2-leaf stage; scoring 28 days after application
Experimental: as §1, §2

[9] = system: Avena fatua; assay: Field trial with maize, herbicidal action; settings: application 2- to 4-leaf stage, scoring 28 days after application
Experimental: as §1, §2

[10] = system: Galium aparine; assay: Field trial with maize, herbicidal action; settings: application 3- to 4-leaf stage, scoring 24 days after application
Experimental: as §1, §3

[11] = system: Fagopyrum esculentum; assay: Field trial with maize, herbicidal action; settings: application 3- to 4-leaf stage, scoring 24 days after application
Experimental: as §1, §3

[12] = system: Sorghum bicolor; assay: Field trial with maize, herbicidal action; settings: pre-emergence application, scoring 46 days after pre-emergence application
Experimental: as §1, §2

[13] = system: Lamium amplexicaule; assay: Field trial with maize, herbicidal action; settings: application 1-leaf stage, scoring 17 days after application
Experimental: as §1, §3

[14] = system: Panicum dichotomiflorum; assay: Field trial with maize, herbicidal action; settings: 300 g of a.s./ha; application 5-6-leaf stage; scoring 11 days after application
Experimental: as §1, §3

[15] = system: Digitaria sanguinalis; assay: Field trial with maize, herbicidal action; settings: 300 g of a.s./ha; application 5-6-leaf stage; scoring 11 days after application
Experimental: as §1, §3

[16] = system: Sorghum halepense; assay: Field trial with maize, herbicidal action; settings: application 4-leaf stage, scoring 28 days after application
Experimental: as §1, §2

COc1nc(C)nc(NC(=O)NS(=O)(=O)c2ccsc2C(=O)O)n1 [(B3.6), 3-[[[[(4-methoxy-6-methyl-1,3,5-triazin-2-yl)amino]carbonyl]amino]sulfonyl]-2-thiophenecarboxylic acid]
Herbicidal action (%) against Sinapis arvensis [1]: 73%

CCc1cccc(CC)c1N(COC)C(=O)CCl [(B1.6), 2-chloro-N-(2,6-diethylphenyl)-N-(methoxymethyl)acetamide]
Herbicidal action (%) against Commelina benghalensis ([2]; 1920 g of a.s./ha): 37% | Mais LL ([3]; 1920 g of a.s./ha, application 3-leaf stage, Table 11, head names no quantity): 0

CCCCCCCCSC(=O)Oc1cc(Cl)nnc1-c1ccccc1 [(B2.2), 6-chloro-3-phenylpyridazin-4-yl S-octyl thiocarbonate]
Herbicidal action (%) against Convolvulus arvensis ([4]; 900 g of a.s./ha): 40%

CCc1cnc(C2=NC(C)(C(C)C)C(=O)N2)c(C(=O)O)c1 (stereo not shown) [(A3.2), imazethapyr]
Herbicidal action (%) against Commelina benghalensis ([2]; 100 g of a.s./ha): 73% | Mais LL ([3]; in vivo): 0

CS(=O)(=O)c1ccc(C(=O)C2C(=O)CCCC2=O)c([N+](=O)[O-])c1 [(B1.16), 2-(4-mesyl-2-nitrobenzoyl)cyclohexane-1,3-dione]
Herbicidal action (%) against EPHHL ([5]; 50 g of a.s./ha): 60% | Herbicidal action (%) against EPHHL ([5]; 100 g of a.s./ha): 58% | Herbicidal action (%) against EPHHL ([5]; 150 g of a.s./ha): 70% | Damage to Mais LL in % ([3]; 50 g of a.s./ha, application 4-leaf stage): 0% | Damage to Mais LL in % ([3]; 100 g of a.s./ha, application 4-leaf stage): 0% | Damage to Mais LL in % ([3]; 150 g of a.s./ha, application 4-leaf stage): 0%

CS(=O)(=O)c1ccc(C(=O)C2C(=O)CCCC2=O)c(Cl)c1 [(B1.14), 2-(2-chloro-4-mesylbenzoyl)cyclohexane-1,3-dione]
Herbicidal action (%) against Euphorbia heterophylla ([5]; 200 g of a.s./ha): 60% | Herbicidal action (%) against Euphorbia heterophylla ([5]; 300 g of a.s./ha): 68% | Herbicidal action (%) against Euphorbia heterophylla ([5]; 400 g of a.s./ha): 75% | Damage to Mais LL in % ([3]; 200 g of a.s./ha, application 6-leaf stage): 0% | Damage to Mais LL in % ([3]; 300 g of a.s./ha, application 6-leaf stage): 0% | Damage to Mais LL in % ([3]; 400 g of a.s./ha, application 6-leaf stage): 0%

O=C(O)c1nc(Cl)ccc1Cl [(B3.4), 3,6-dichloro-2-pyridinecarboxylic acid]
Herbicidal action (%) against Echinochloa crus-galli ([6]; 100 g of a.s./ha, application 3-leaf stage, scoring 21 days after application): 15% | Mais LL ([3]; 100 g of a.s./ha, application 3-leaf stage, Table 14, head names no quantity): 0

CCc1cccc(C)c1N(C(=O)CCl)C(C)COC (stereo not shown) [(B1.5), 2-chloro-N-(2-ethyl-6-methylphenyl)-N-(2-methoxy-1-methylethyl)-acetamide]
Herbicidal action (%) against Portulaca oleracea ([7]; 1680 g of a.s./ha, application 2- to 4-leaf stage, scoring 28 days after application): 35% | Herbicidal action (%) against Brachiaria plantaginea [8]: 70% | Herbicidal action (%) against Avena fatua ([9]; 1680 g of a.s./ha): 40%

COc1nc(NC(=O)NS(=O)(=O)c2ccccc2C(F)(F)F)nc(C(F)(F)F)n1 [(B3.8), N-[[[4-methoxy-6-(trifluoromethyl)-1,3,5-triazin-2-yl)amino]-carbonyl]-2-(trifluoromethyl)benzenesulfonamide]
Herbicidal action (%) against Galium aparine ([10]; 15 g of a.s./ha): 45% | Herbicidal action (%) against Galium aparine ([10]; 30 g of a.s./ha): 65% | Herbicidal action (%) against Galium aparine ([10]; 60 g of a.s./ha): 85% | Herbicidal action (%) against Fagopyrum esculentum ([11]; 15 g of a.s./ha): 30% | Herbicidal action (%) against Fagopyrum esculentum ([11]; 30 g of a.s./ha): 60% | Herbicidal action (%) against Fagopyrum esculentum ([11]; 60 g of a.s./ha): 78%

Cc1ccn2nc(S(=O)(=O)Nc3c(F)cccc3F)nc2n1 [(B2.8)]
Herbicidal action (%) against Echinochloa crus-galli ([6]; 50 g of a.s./ha, application 3-leaf stage, scoring 21 days after application): 40% | Herbicidal action (%) against Echinochloa crus-galli ([6]; 70 g of a.s./ha, application 3-leaf stage, scoring 21 days after application): 65%

COCC(C)N(C(=O)CCl)c1c(C)csc1C (stereo not shown) [(B1.12), 2-chloro-N-(2,4-dimethyl-3-thienyl)-N-(2-methoxy-1-methylethyl)acetamide]
Herbicidal action (%) against Convolvulus arvensis ([4]; 900 g of a.s./ha): 30%

CCNc1nc(Cl)nc(NC(C)(C)C#N)n1 [(B1.1), 2-(4-chloro-6-ethylamino-1,3,5-triazin-2-ylamino)-2-methylpropionitrile]
Herbicidal action (%) against Portulaca oleracea ([7]; 2242 g of a.s./ha, application 2- to 4-leaf stage, scoring 28 days after application): 45% | Herbicidal action (%) against Avena fatua ([9]; 2242 g of a.s./ha): 35%

CS(=O)(=O)c1cc(C(F)(F)F)ccc1C(=O)c1cnoc1C1CC1 [(B2.5), (5-cyclopropyl-4-isoxazolyl)[2-(methylsulfonyl)-4-(trifluoromethyl)phenyl]-methasone]
Herbicidal action (%) against Sorghum bicolor ([12]; 25 g of a.s./ha): 20% | Herbicidal action (%) against Sorghum bicolor ([12]; 50 g of a.s./ha): 40% | Herbicidal action (%) against Sorghum bicolor ([12]; 100 g of a.s./ha): 75%

Cc1cc(Cl)ccc1OCC(=O)O [(B3.9), (4-chloro-2-methylphenoxy)acetic acid]
Herbicidal action (%) against Convolvulus arvensis ([4]; 500 g of a.s./ha): 60%

O=C(O)CNCP(=O)(O)O [(A2.1), N-(phosphonomethyl)glycine]
Herbicidal action (%) against Lamium amplexicaule ([13]; 400 g of a.s./ha): 75% | Herbicidal action (%) against Lamium amplexicaule ([13]; 600 g of a.s./ha): 90%

CCOCN(C(=O)CCl)c1c(C)cccc1CC [(B1.4), 2-chloro-N-(ethoxymethyl)-N-(2-ethyl-6-methylphenyl)acetamide]
Herbicidal action (%) against Echinochloa crus-galli ([6]; 375 g of a.s./ha, application 3- to 4-leaf stage, scoring 42 days after application): 10% | Herbicidal action (%) against Echinochloa crus-galli ([6]; 750 g of a.s./ha, application 3- to 4-leaf stage, scoring 42 days after application): 40% | Herbicidal action (%) against Echinochloa crus-galli ([6]; 1500 g of a.s./ha, application 3- to 4-leaf stage, scoring 42 days after application): 45%

N#Cc1cc(Br)c(O)c(Br)c1 [(B3.1), 3,5-dibromo-4-hydroxybenzonitrile]
Herbicidal action (%) against Portulaca oleracea ([7]; 360 g of a.s./ha, application 2- to 4-leaf stage, scoring 28 days after application): 25% | Herbicidal action (%) against Portulaca oleracea ([7]; 360 g of a.s./ha, application 6-leaf stage, scoring 26 days after application): 25% | Herbicidal action (%) against Avena fatua ([9]; 360 g of a.s./ha): 10%

COc1c(Cl)ccc(Cl)c1C(=O)O [(B3.2), 3,6-dichloro-o-anisic acid]
Herbicidal action (%) against Panicum dichotomiflorum [14]: 0% | Herbicidal action (%) against Digitaria sanguinalis [15]: 88% | Damage to Mais LL in % ([3]; in vivo): 0%

O=C(O)COc1ccc(Cl)cc1Cl [(B3.3), 2,4-dichlorophenoxyacetic acid]
Herbicidal action (%) against Convolvulus arvensis ([4]; 500 g of a.s./ha): 20%

O=C(Nc1nc(OC(F)F)cc(OC(F)F)n1)NS(=O)(=O)c1ccccc1C(=O)O [(B1.11), 2-[4,6-bis(difluoromethoxy)pyrimidin-2-ylcarbamoylsulfamoyl]benzoic acid]
Herbicidal action (%) against Sorghum halepense ([16]; 10 g of a.s./ha): 62% | Herbicidal action (%) against Sorghum halepense ([16]; 20 g of a.s./ha): 93%

CC(C)N(C(=O)COc1nnc(C(F)(F)F)s1)c1ccc(F)cc1 [(B1.13), 4′-fluoro-N-isopropyl-2-(5-trifluoromethyl-1,3,4-thiadiazol-2-yloxy)acetanilide]
Herbicidal action (%) against Echinochloa crus-galli ([6]; 125 g of a.s./ha, application 3-leaf stage, scoring 28 days after application): 25% | Herbicidal action (%) against Echinochloa crus-galli ([6]; 250 g of a.s./ha, application 3-leaf stage, scoring 28 days after application): 30% | Herbicidal action (%) against Echinochloa crus-galli ([6]; 500 g of a.s./ha, application 3-leaf stage, scoring 28 days after application): 55%

Reference: patent US8772199B2, “Herbicidal compositions for tolerant or resistant maize crops” (Bayer Intellectual Property GmbH, priority 1998, dated 2014)
